Data from patent US20260365628A1, “SUBSTITUTED 3,4-DIHYDROQUINOLINONE INHIBITORS OF TSHR” (Septerna, Inc., priority 2022, published 2026).

Target: T1, hTSHR (Homo sapiens, UniProt P16473)
T1 construct: expressed in transfected cells
Assay: hTSHR TR-FRET cAMP Assay (inhibition of M22-stimulated cAMP production)
Type: cell-based
Conditions: Expi293F Inducible cells stably expressing hTSHR; cAMP HTRF; stimulated with EC80 of anti-TSHR antibody M22; 15 min compound preincubation, 30 min at 37° C.; read-out: Activity (IC50 bins)
Protocol: Assays were performed using Expi293F Inducible cells (Invitrogen) stably expressing hTSHR via a pcZeo TetO DNA plasmid. Cell lines were maintained in suspension in Expi293 Expression Medium (ThermoFisher Scientific) supplemented with 10 µg/mL Blasticidin and 10 μg/mL Zeocin and incubated at 37° C., 8% CO2, with shaking. hTSHR cells were incubated overnight at 32° C., 5% C02, with shaking, but […] Doxycycline. Assay-ready aliquots were prepared by harvesting each cell type separately 24-hours post-induction. Cells were pelleted at 4° C., resuspended in Expi293 Expression media+10% DMSO, aliquoted, and kept frozen at −80° C. until ready for use.
For the assay, concentration-response curves of test and reference compounds were added to 384-well plates using an Echo 650 liquid handler (Beckman Coulter) and backfilled with DMSO to a final concentration of 0.5%. cAMP was measured using the cisbio cAMP Gs dynamic HTRF kit (PerkinElmer) according to manufacturer instructions. Aliquots of frozen hTSHR cells were quickly thawed and washed with phosphate-buffered saline (Sigma-Aldrich) to remove media and DMSO. The cells were resuspended in kit-supplied Stimulation Buffer at 0.8×10^6 cells/mL. 7.5 μL of the hTSHR cell dilution were added to each well of the assay plate and incubated with the compounds for 15 minutes in a 37 C, 0% CO2 incubator. 2.5 μL of Vehicle control or an EC80 concentration of recombinant human anti-TSHR antibody (M22, Creative Biolabs) was added to stimulate cAMP production. Cells were incubated with for 30 minutes at 37° C., 0% CO2. Following this incubation, the cells were lysed and accumulated cAMP was detected through the addition of kit-supplied lysis buffer containing d2-reagent and Eu-cryptate antibody. The HTRF signal was quantified using a BMG Clariostar plate reader optimized for HTRF assays. The HTRF ratio was determined by dividing the signal output at […] by that at 620 nm. Data were normalized to the signal produced by the EC80 concentration of either M22 or FSH (0% inhibition) and vehicle (no agonist, 100% inhibition).

T1 sequence (P16473 21-764): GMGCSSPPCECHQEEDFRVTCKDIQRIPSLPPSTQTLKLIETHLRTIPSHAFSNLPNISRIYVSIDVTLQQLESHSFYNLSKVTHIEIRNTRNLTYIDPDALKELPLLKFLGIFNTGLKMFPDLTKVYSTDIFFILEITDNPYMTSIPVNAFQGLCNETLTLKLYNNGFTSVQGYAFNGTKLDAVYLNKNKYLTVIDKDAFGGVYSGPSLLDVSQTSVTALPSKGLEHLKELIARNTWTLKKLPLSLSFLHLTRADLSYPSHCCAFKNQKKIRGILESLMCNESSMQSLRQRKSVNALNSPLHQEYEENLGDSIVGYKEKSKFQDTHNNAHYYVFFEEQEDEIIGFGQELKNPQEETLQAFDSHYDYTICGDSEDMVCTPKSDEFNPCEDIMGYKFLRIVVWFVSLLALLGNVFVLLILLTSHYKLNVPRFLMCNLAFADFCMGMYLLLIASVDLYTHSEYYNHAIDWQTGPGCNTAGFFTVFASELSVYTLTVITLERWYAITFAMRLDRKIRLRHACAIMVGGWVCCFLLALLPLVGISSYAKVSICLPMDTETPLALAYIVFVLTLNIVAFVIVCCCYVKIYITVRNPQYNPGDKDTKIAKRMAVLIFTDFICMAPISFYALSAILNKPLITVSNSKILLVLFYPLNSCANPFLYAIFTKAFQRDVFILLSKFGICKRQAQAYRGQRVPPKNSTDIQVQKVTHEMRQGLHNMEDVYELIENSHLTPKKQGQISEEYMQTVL

First: CC(C)(C)NC(=O)Nc1ccc2c(c1)CCC(=O)N2Cc1cccc(F)c1 [Example 26, 1-(tert-butyl)-3-(1-(3-fluorobenzyl)-2-oxo-1,2,3,4-tetrahydroquinolin-6-yl)urea]
Second: CC(C)(C)NC(=O)Nc1ccc2c(c1)CCC(=O)N2Cc1ccc(F)cc1 [Example 27, 1-(tert-butyl)-3-(1-(4-fluorobenzyl)-2-oxo-1,2,3,4-tetrahydroquinolin-6-yl)urea]
The IC50 of the first is lower: under 0.1 µM for the first, 0.1 to 1 µM for the second. The first is the more potent here.

`CCC(c1ccccc1)N1C(=O)CCc2cc(NC(=O)NC(C)(C)C)ccc21` (centres unmarked) [Example 28, 1-(tert-butyl)-3-(2-oxo-1-(1-phenylpropyl)-1,2,3,4-tetrahydroquinolin-6-yl)urea] and `CC(C)(C)NC(=O)Nc1ccc2c(c1)CCC(=O)N2C(CO)c1ccccc1` (centres unmarked) [Example 30, 1-(tert-butyl)-3-(1-(2-hydroxy-1-phenylethyl)-2-oxo-1,2,3,4-tetrahydroquinolin-6-yl)urea] cannot be ordered by IC50: over 1 µM for the first, over 1 µM for the second.

`CC(C)(C)NC(=O)Nc1ccc2c(c1)CC(C)(C)C(=O)N2Cc1ccccc1` [Example 29, 1-(1-benzyl-3,3-dimethyl-2-oxo-1,2,3,4-tetrahydroquinolin-6-yl)-3-(tert-butyl)urea] and `CC(C)(C)NC(=O)Nc1ccc2c(c1)CC(=O)N2Cc1ccccc1` [Example 31, 1-(1-benzyl-2-oxo-3H-indol-5-yl)-3-tert-butylurea] cannot be ordered by IC50: over 1 µM for the first, over 1 µM for the second.

`CC(C)C1Cc2cc(NC(=O)NC(C)(C)C)ccc2N(Cc2ccccc2)C1=O` (centres unmarked) [Example 32, 1-(1-benzyl-3-isopropyl-2-oxo-1,2,3,4-tetrahydroquinolin-6-yl)-3-(tert-butyl)urea] and `CC(C)(C)NC(=O)Nc1ccc2c(c1)CC(CO)C(=O)N2Cc1ccccc1` (centres unmarked) [Example 51, 1-(1-benzyl-3-(hydroxymethyl)-2-oxo-1,2,3,4-tetrahydroquinolin-6-yl)-3-(tert-butyl)urea] cannot be ordered by IC50: over 1 µM for the first, over 1 µM for the second.

`CC(C)(C)NC(=O)Nc1ccc2c(c1)OCC(=O)N2Cc1cccc(Cl)c1` [Example 33, 3-tert-butyl-1-{4-[(3-chlorophenyl)methyl]-3-oxo-2H-1,4-benzoxazin-7-yl}urea] and `Cc1cccc(CN2C(=O)COc3cc(NC(=O)NC(C)(C)C)ccc32)c1` [Example 40, 1-(tert-butyl)-3-(4-(3-methylbenzyl)-3-oxo-3,4-dihydro-2H-benzo[b][1,4]oxazin-7-yl)urea] cannot be ordered by IC50: under 0.1 µM for the first, under 0.1 µM for the second.

Compared with `C[C@H](c1ccccc1)N1C(=O)COc2cc(NC(=O)NC(C)(C)C)ccc21` [Example 34, (R)-1-(tert-butyl)-3-(3-oxo-4-(1-phenylethyl)-3,4-dihydro-2H-benzo[b][1,4]oxazin-7-yl)urea], `C[C@@H](c1ccccc1)N1C(=O)COc2cc(NC(=O)NC(C)(C)C)ccc21` [Example 35, (S)-1-(tert-butyl)-3-(3-oxo-4-(1-phenylethyl)-3,4-dihydro-2H-benzo[b][1,4]oxazin-7-yl)urea] is lower in IC50: 0.1 to 1 µM for the first, under 0.1 µM for the second.

Compared with `C[C@H](c1cccc(Cl)c1)N1C(=O)COc2cc(NC(=O)NC(C)(C)C)ccc21` [Example 36, (R)-1-(tert-butyl)-3-(4-(1-(3-chlorophenyl)ethyl)-3-oxo-3,4-dihydro-2H-benzo[b][1,4]oxazin-7-yl)urea], `C[C@@H](c1cccc(Cl)c1)N1C(=O)COc2cc(NC(=O)NC(C)(C)C)ccc21` [Example 37, (S)-1-(tert-butyl)-3-(4-(1-(3-chlorophenyl)ethyl)-3-oxo-3,4-dihydro-2H-benzo[b][1,4]oxazin-7-yl)urea] is lower in IC50: over 1 µM for the first, under 0.1 µM for the second. The second is the more potent here.

Compared with `CC(C)(C)NC(=O)Nc1ccc2c(c1)oc(=O)n2Cc1ccccc1` [Example 38, 1-(3-benzyl-2-oxo-2,3-dihydrobenzo[d]oxazol-6-yl)-3-(tert-butyl)urea], `C[C@H]1Oc2cc(NC(=O)NC(C)(C)C)ccc2N(Cc2ccccc2)C1=O` [Example 41, (R)-1-(4-benzyl-2-methyl-3-oxo-3,4-dihydro-2H-benzo[b][1,4]oxazin-7-yl)-3-(tert-butyl)urea] is lower in IC50: over 1 µM for the first, under 0.1 µM for the second.

`CC(C)(C)NC(=O)Nc1ccc2c(c1)CCC(=O)N2Cc1cc(C(F)(F)F)ccc1F` [Example 39, 1-(tert-butyl)-3-(1-(2-fluoro-5-(trifluoromethyl)benzyl)-2-oxo-1,2,3,4-tetrahydroquinolin-6-yl)urea] and `CC(C)(C)NC(=O)Nc1ccc2c(c1)CCC(=O)N2Cc1cc(C(F)(F)F)ccc1C#N` [Example 55, 3-tert-butyl-1-(1-{[2-cyano-5-(trifluoromethyl)phenyl]methyl}-2-oxo-3,4-dihydroquinolin-6-yl) urea] cannot be ordered by IC50: under 0.1 µM for the first, under 0.1 µM for the second.

`C[C@@H]1Oc2cc(NC(=O)NC(C)(C)C)ccc2N(Cc2ccccc2)C1=O` [Example 42, (S)-1-(4-benzyl-2-methyl-3-oxo-3,4-dihydro-2H-benzo[b][1,4]oxazin-7-yl)-3-(tert-butyl)urea] and `CC(C)(C)NC(=O)Nc1ccc2c(c1)OCC(=O)N2Cc1cccc(C(F)(F)F)c1` [Example 50, 1-(tert-butyl)-3-(3-oxo-4-(3-(trifluoromethyl)benzyl)-3,4-dihydro-2H-benzo[b][1,4]oxazin-7-yl)urea] cannot be ordered by IC50: under 0.1 µM for the first, under 0.1 µM for the second.

Compared with `C[C@@H](c1ccccc1)N1C(=O)N(C)Cc2cc(NC(=O)NC(C)(C)C)ccc21` [Example 45, 3-tert-butyl-1-{3-methyl-2-oxo-1-[(1S)-1-phenylethyl]-4H-quinazolin-6-yl}urea], `C[C@H](c1ccccc1)N1C(=O)N(C)Cc2cc(NC(=O)NC(C)(C)C)ccc21` [Example 45A, 3-tert-butyl-1-{3-methyl-2-oxo-1-[(1R)-1-phenylethyl]-4H-quinazolin-6-yl}urea] is higher in IC50: under 0.1 µM for the first, over 1 µM for the second. The first is the more potent here.

First: C[C@@H](c1cccc(Cl)c1)N1C(=O)N(C)Cc2cc(NC(=O)NC(C)(C)C)ccc21 [Example 46]
Second: C[C@H](c1cccc(Cl)c1)N1C(=O)N(C)Cc2cc(NC(=O)NC(C)(C)C)ccc21 [Example 52]
The IC50 of the first is lower: under 0.1 µM for the first, over 1 µM for the second.

`CN1Cc2cc(NC(=O)NC(C)(C)C)ccc2N(Cc2cccc(Cl)c2)C1=O` [Example 47, 1-(tert-butyl)-3-(1-(3-chlorobenzyl)-3-methyl-2-oxo-1,2,3,4-tetrahydroquinazolin-6-yl)urea] and `Cc1cccc(CN2C(=O)CCc3cc(NC(=O)NC(C)(C)C)ccc32)c1F` [Example 48, 1-(tert-butyl)-3-(1-(2-fluoro-3-methylbenzyl)-2-oxo-1,2,3,4-tetrahydroquinolin-6-yl)urea] cannot be ordered by IC50: under 0.1 µM for the first, under 0.1 µM for the second.

First: Cc1ccc(F)c(CN2C(=O)CCc3cc(NC(=O)NC(C)(C)C)ccc32)c1 [Example 49, 1-(tert-butyl)-3-(1-(2-fluoro-5-methylbenzyl)-2-oxo-1,2,3,4-tetrahydroquinolin-6-yl)urea]
Second: Cc1cccc(CN2C(=O)CCc3cc(NC(=O)NC(C)(C)C)ccc32)c1C#N [Example 53, 3-tert-butyl-1-{1-[(2-cyano-3-methylphenyl)methyl]-2-oxo-3,4-dihydroquinolin-6-yl}urea]
The IC50 of the first is lower: under 0.1 µM for the first, 0.1 to 1 µM for the second. The first is the more potent here.

First: CC(C)(C)NC(=O)Nc1ccc2c(c1)CCC(=O)N2Cc1cccc(C(F)(F)F)c1F [Example 54, 1-(tert-butyl)-3-(1-(2-fluoro-3-(trifluoromethyl)benzyl)-2-oxo-1,2,3,4-tetrahydroquinolin-6-yl)urea]
Second: CC(C)(C)NC(=O)Nc1ccc2c(c1)CCC(=O)N2Cc1cccc(C(F)(F)F)c1C#N [Example 59, 1-(tert-butyl)-3-(1-(2-cyano-3-(trifluoromethyl)benzyl)-2-oxo-1,2,3,4-tetrahydroquinolin-6-yl)urea]
The IC50 of the first is lower: under 0.1 µM for the first, 0.1 to 1 µM for the second. The first is the more potent here.

`Cc1cccc([C@H](C)N2C(=O)CCc3cc(NC(=O)NC(C)(C)C)ccc32)c1` [Example 56, (S)-1-(tert-butyl)-3-(2-oxo-1-(1-(m-tolyl)ethyl)-1,2,3,4-tetrahydroquinolin-6-yl)urea] and `C[C@@H](c1cccc(C(F)(F)F)c1)N1C(=O)CCc2cc(NC(=O)NC(C)(C)C)ccc21` [Example 60, (S)-3-tert-butyl-1-(2-oxo-1-{1-[3-(trifluoromethyl)phenyl]ethyl}-3,4-dihydroquinolin-6-yl)urea] cannot be ordered by IC50: under 0.1 µM for the first, under 0.1 µM for the second.

`Cc1cccc([C@H](C)N2C(=O)COc3cc(NC(=O)NC(C)(C)C)ccc32)c1` [Example 57, (S)-1-(tert-butyl)-3-(3-oxo-4-(1-(m-tolyl)ethyl)-3,4-dihydro-2H-benzo[b][1,4]oxazin-7-yl)urea] and `C[C@@H](c1ccccc1F)N1C(=O)CCc2cc(NC(=O)NC(C)(C)C)ccc21` [Example 58, 3-tert-butyl-1-{1-[(1S)-1-(2-fluorophenyl)ethyl]-2-oxo-3,4-dihydroquinolin-6-yl}urea] cannot be ordered by IC50: under 0.1 µM for the first, under 0.1 µM for the second.

With `C[C@@H](c1ccccc1C#N)N1C(=O)CCc2cc(NC(=O)NC(C)(C)C)ccc21` [Example 61, (S)-1-(tert-butyl)-3-(1-(1-(2-cyanophenyl)ethyl)-2-oxo-1,2,3,4-tetrahydroquinolin-6-yl)urea] the IC50 was 0.1 to 1 µM.
